Patent publication US8673929B2, “4,6-di- and 2,4,6-trisubstituted quinazoline derivatives and pharmaceutical compositions useful for treating viral infections” (priority 2006, dated 2014)

Assays:
HCV replicon = test: Anti-HCV replicon assay, EC50 (luciferase readout); type: cell-based; settings: Hepatitis C virus, 72 h; Huh-7 HCV replicon cells, 3 days incubation, luciferase luminescence
Method in brief: (§1)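 Huh-7 cells harbouring an HCV replicon (6000/well) incubated 3 days at 37° C with 3-fold serially diluted compound (0.5% DMSO final where used). EC50 from luciferase luminescence of lysed cells; CC50 from CellTiter-Glo luminescence in parallel plates.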

[1] = CC50 assay in the anti-HCV replicon assay (CellTiter-Glo); type: cell-based, human; settings: human, Huh-7 hepatoma cells harbouring an HCV replicon; Huh-7 HCV replicon cells, 3 days incubation, CellTiter-Glo luminescence
Method in brief: as §1

For Nc1nc(OCCF)c2cc(-c3ccc(O)cc3)ccc2n1 [Example 209, 4-[2-Amino-4-(2-fluoro-ethoxy)-quinazolin-6-yl]-phenol], the EC50 (HCV replicon) was 1 to 10 µM and the CC50 at 3 days [1] was over 20 µM.
For Nc1nc(OCCF)c2cc(-c3cccc(O)c3)ccc2n1 [Example 210, 3-[2-Amino-4-(2-fluoro-ethoxy)-quinazolin-6-yl]-phenol], the EC50 (HCV replicon) was 1 to 10 µM and the CC50 at 3 days [1] was over 20 µM.
Nc1nc(OCCF)c2cc(-c3ccc(C(=O)NC4CC4)cc3)ccc2n1 [Example 211, 4-[2-Amino-4-(2-fluoro-ethoxy)-quinazolin-6-yl]-N-cyclopropyl-benzamide] showed an EC50 (HCV replicon) of 0.3 to 1 µM and a CC50 at 3 days [1] of over 20 µM.
In the case of CNC(=O)c1ccc(-c2ccc3nc(N)nc(OCCF)c3c2)cc1 [Example 212, 4-[2-Amino-4-(2-fluoro-ethoxy)-quinazolin-6-yl]-N-methyl-benzamide], the EC50 (HCV replicon) is reported as 1 to 10 µM and the CC50 at 3 days [1] is reported as over 20 µM.
Molecule Nc1nc(OC[C@@H]2CCCO2)c2cc(-c3ccc(C(=O)NC4CC4)cc3)ccc2n1 [Example 213] has an EC50 (HCV replicon) of under 0.3 µM and a CC50 at 3 days [1] of over 20 µM.
CCOc1nc(N)nc2ccc(-c3ccc(C(N)=O)cc3)cc12 [Example 214, 4-(2-Amino-4-ethoxy-quinazolin-6-yl)-benzamide] gave an EC50 (HCV replicon) of under 0.3 µM and a CC50 at 3 days [1] of over 20 µM.
Nc1nc(O[C@H]2CCOC2)c2cc(-c3ccc(C(=O)NC4CC4)cc3)ccc2n1 [Example 215, (S)-4-[2-Amino-4-(tetrahydro-furan-3-yloxy)-quinazolin-6-yl]-N-cyclopropyl-benzamide] showed an EC50 (HCV replicon) of under 0.3 µM and a CC50 at 3 days [1] of over 20 µM.
For CN(C)CCNC(=O)c1ccc(-c2ccc3nc(N)nc(O[C@H]4CCOC4)c3c2)cc1 [Example 216], the EC50 (HCV replicon) was under 0.3 µM and the CC50 at 3 days [1] was over 20 µM.
Nc1nc(O[C@@H]2CCOC2)c2cc(-c3ccc(C(=O)NCCN4CCOCC4)cc3)ccc2n1 [Example 217, (R)-4-[2-Amino-4-(tetrahydro-furan-3-yloxy)-quinazolin-6-yl]-N-(2-morpholin-4-yl-ethyl)-benzamide] showed an EC50 (HCV replicon) of under 0.3 µM and a CC50 at 3 days [1] of over 20 µM.
Nc1nc(O[C@@H]2CCOC2)c2cc(-c3ccc(C(=O)NCCN4CCCC4)cc3)ccc2n1 [Example 218, (R)-4-[2-Amino-4-(tetrahydro-furan-3-yloxy)-quinazolin-6-yl]-N-(2-pyrrolidin-1-yl-ethyl)-benzamide] gave an EC50 (HCV replicon) of under 0.3 µM and a CC50 at 3 days [1] of under 10 µM.
Molecule Nc1nc(O[C@@H]2CCOC2)c2cc(-c3ccc(C(=O)NCC(F)(F)F)cc3)ccc2n1 [Example 219, (R)-4-[2-Amino-4-(tetrahydro-furan-3-yloxy)-quinazolin-6-yl]-N-(2,2,2-trifluoro-ethyl)-benzamide] has an EC50 (HCV replicon) of under 0.3 µM and a CC50 at 3 days [1] of over 20 µM.
In the case of Nc1nc(O[C@@H]2CCOC2)c2cc(-c3ccc(C(=O)NCCCN4CCCC4)cc3)ccc2n1 [Example 220, (R)-4-[2-Amino-4-(tetrahydro-furan-3-yloxy)-quinazolin-6-yl]-N-(3-pyrrolidin-1-yl-propyl)-benzamide], the EC50 (HCV replicon) is reported as under 0.3 µM and the CC50 at 3 days [1] is reported as under 10 µM.
CC(C)(CN1CCOCC1)NC(=O)c1ccc(-c2ccc3nc(N)nc(O[C@@H]4CCOC4)c3c2)cc1 [Example 222, (R)-4-[2-Amino-4-(tetrahydro-furan-3-yloxy)-quinazolin-6-yl]-N-(1,1-dimethyl-2-morpholin-4-yl-ethyl)-benzamide] showed an EC50 (HCV replicon) of under 0.3 µM and a CC50 at 3 days [1] of over 20 µM.
CC(C)(CN1CCCC1)NC(=O)c1ccc(-c2ccc3nc(N)nc(O[C@@H]4CCOC4)c3c2)cc1 [Example 223, (R)-4-[2-Amino-4-(tetrahydro-furan-3-yloxy)-quinazolin-6-yl]-N-(1,1-dimethyl-2-pyrrolidin-1-yl-ethyl)-benzamide] gave an EC50 (HCV replicon) of under 0.3 µM and a CC50 at 3 days [1] of under 10 µM.
Molecule N#CC1(NC(=O)c2ccc(-c3ccc4nc(N)nc(O[C@@H]5CCOC5)c4c3)cc2)CC1 [Example 224, (R)-4-[2-Amino-4-(tetrahydro-furan-3-yloxy)-quinazolin-6-yl]-N-(1-cyano-cyclopropyl)-benzamide] has an EC50 (HCV replicon) of under 0.3 µM and a CC50 at 3 days [1] of over 20 µM.
In the case of CC(C)N1CCC(NC(=O)c2ccc(-c3ccc4nc(N)nc(O[C@@H]5CCOC5)c4c3)cc2)CC1 [Example 225, (R)-4-[2-Amino-4-(tetrahydro-furan-3-yloxy)-quinazolin-6-yl]-N-(1-isopropyl-piperidin-4-yl)-benzamide], the EC50 (HCV replicon) is reported as 1 to 10 µM and the CC50 at 3 days [1] is reported as over 20 µM.
Work on CN(C)CCCOc1nc(N)nc2ccc(-c3cc4ccccc4o3)cc12 [Example 227, 6-benzofuran-2-yl-4-(3-dimethylaminopropoxy)-quinazolin-2-ylamine] yielded an EC50 (HCV replicon) of 1 to 10 µM and a CC50 at 3 days [1] of over 20 µM.
Work on CN(C)CCCOc1nc(N)nc2ccc(-c3ccc(Cl)cc3Cl)cc12 [Example 229, 6-(2,4-Dichlorophenyl)-4-(3-dimethylamino-propoxy)-quinazolin-2-ylamine] yielded an EC50 (HCV replicon) of 1 to 10 µM and a CC50 at 3 days [1] of over 20 µM.
Molecule CN(C)CCCOc1nc(N)nc2ccc(-c3cc(F)c(F)c(F)c3)cc12 [Example 230, 4-(3-Dimethylamino-propoxy)-6-(3,4,5-trifluoro-phenyl)-quinazolin-2-ylamine] has an EC50 (HCV replicon) of 1 to 10 µM and a CC50 at 3 days [1] of over 20 µM.
Cc1cc(C)cc(-c2ccc3nc(N)nc(OCCCN(C)C)c3c2)c1 [Example 231, 4-(3-Dimethylamino-propoxy)-6-(3,5-dimethyl-phenyl)-quinazolin-2-ylamine] showed an EC50 (HCV replicon) of 1 to 10 µM and a CC50 at 3 days [1] of over 20 µM.
Work on CN(C)CCCOc1nc(N)nc2ccc(-c3ccc(Cl)cc3)cc12 [Example 232, 6-(4-Chloro-phenyl)-4-(3-dimethylamino-propoxy)-quinazolin-2-ylamine] yielded an EC50 (HCV replicon) of 1 to 10 µM and a CC50 at 3 days [1] of over 20 µM.
CN(C)CCCOc1nc(N)nc2ccc(-c3cccc(C(F)(F)F)c3)cc12 [Example 233, 4-(3-Dimethylamino-propoxy)-6-(3-trifluoromethyl-phenyl)-quinazolin-2-ylamine] gave an EC50 (HCV replicon) of 1 to 10 µM and a CC50 at 3 days [1] of over 20 µM.
Nc1nc(OCCN2CCOCC2)c2cc(-c3ccc(Cl)c(C(F)(F)F)c3)ccc2n1 [Example 234, 6-(4-Chloro-3-trifluoromethyl-phenyl)-4-(2-morpholin-4-yl-ethoxy)-quinazolin-2-ylamine] gave an EC50 (HCV replicon) of 1 to 10 µM and a CC50 at 3 days [1] of 10 to 20 µM.
Molecule Nc1nc(OCCN2CCOCC2)c2cc(-c3ccc(O)cc3)ccc2n1 [Example 235, 4-[2-Amino-4-(2-morpholin-4-yl-ethoxy)-quinazolin-6-yl]-phenol] has an EC50 (HCV replicon) of 1 to 10 µM and a CC50 at 3 days [1] of over 20 µM.
For Nc1nc(OCCN2CCOCC2)c2cc(-c3ccsc3)ccc2n1 [Example 236, 4-(2-Morpholin-4-yl-ethoxy)-6-thiophen-3-yl-quinazolin-2-ylamine], the EC50 (HCV replicon) was 1 to 10 µM and the CC50 at 3 days [1] was over 20 µM.
Molecule Nc1nc(OCCN2CCOCC2)c2cc(-c3cccs3)ccc2n1 [Example 237, 4-(2-Morpholin-4-yl-ethoxy)-6-thiophen-2-yl-quinazolin-2-ylamine] has an EC50 (HCV replicon) of 1 to 10 µM and a CC50 at 3 days [1] of over 20 µM.
Nc1nc(OCCN2CCOCC2)c2cc(-c3cc4ccccc4o3)ccc2n1 [Example 238, 6-Benzofuran-2-yl-4-(2-morpholin-4-yl-ethoxy)-quinazolin-2-ylamine] showed an EC50 (HCV replicon) of 1 to 10 µM and a CC50 at 3 days [1] of 10 to 20 µM.
In the case of Nc1nc(OCCN2CCOCC2)c2cc(-c3ccoc3)ccc2n1 [Example 239, 6-Furan-3-yl-4-(2-morpholin-4-yl-ethoxy)-quinazolin-2-ylamine], the EC50 (HCV replicon) is reported as 1 to 10 µM and the CC50 at 3 days [1] is reported as 10 to 20 µM.
Nc1nc(OCCN2CCOCC2)c2cc(-c3cc4ccccc4s3)ccc2n1 [Example 240, 6-Benzo[b]thiophen-2-yl-4-(2-morpholin-4-yl-ethoxy)-quinazolin-2-ylamine] gave an EC50 (HCV replicon) of 1 to 10 µM and a CC50 at 3 days [1] of over 20 µM.
Work on Nc1nc(OCCN2CCOCC2)c2cc(-c3ccccc3C(F)(F)F)ccc2n1 [Example 241, 4-(2-Morpholin-4-yl-ethoxy)-6-(2-trifluoromethyl-phenyl)-quinazolin-2-ylamine] yielded an EC50 (HCV replicon) of 1 to 10 µM and a CC50 at 3 days [1] of over 20 µM.
Nc1nc(OCCN2CCOCC2)c2cc(-c3cccc(C(F)(F)F)c3)ccc2n1 [Example 242, 4-(2-Morpholin-4-yl-ethoxy)-6-(3-trifluoromethyl-phenyl)-quinazolin-2-ylamine] showed an EC50 (HCV replicon) of 1 to 10 µM and a CC50 at 3 days [1] of 10 to 20 µM.
For Nc1nc(OCCN2CCOCC2)c2cc(-c3cccc(F)c3F)ccc2n1 [Example 243, 6-(2,3-Difluoro-phenyl)-4-(2-morpholin-4-yl-ethoxy)-quinazolin-2-ylamine], the EC50 (HCV replicon) was 1 to 10 µM and the CC50 at 3 days [1] was over 20 µM.
With CC(C)Oc1ncnc2ccc(-c3ccsc3)cc12 [Example 244, 4-isopropoxy-6-thiophen-3-yl-quinazoline] the EC50 (HCV replicon) was 1 to 10 µM and the CC50 at 3 days [1] was over 20 µM.
CNC(=O)c1ccc(-c2ccc3ncnc(OC(C)C)c3c2)cc1 [Example 245, 4-(4-Isopropoxy-quinazolin-6-yl)-N-methyl-benzamide] gave an EC50 (HCV replicon) of 1 to 10 µM and a CC50 at 3 days [1] of over 20 µM.
CC(C)Oc1ncnc2ccc(-c3ccc(F)cc3)cc12 [Example 248, 6-(4-Fluorophenyl)-4-isopropoxy-quinazoline] showed an EC50 (HCV replicon) of 1 to 10 µM and a CC50 at 3 days [1] of over 20 µM.
CN(C)CCNC(=O)c1ccc(-c2ccc3nc(NCc4ccc(F)cc4)nc(O[C@H]4CCOC4)c3c2)cc1 [Example 249, (S)-4-(2-(4-fluorobenzylamino)-4-(tetrahydrofuran-3-yloxy)quinazolin-6-yl)-N-(2-(dimethylamino)ethyl)benzamide] gave an EC50 (HCV replicon) of under 0.3 µM and a CC50 at 3 days [1] of under 10 µM.
In the case of CCOc1nc(NCc2ccc(S(N)(=O)=O)cc2)nc2ccc(-c3ccc(F)cc3)cc12 [Example 250, 4-{[4-Ethoxy-6-(4-fluoro-phenyl)-quinazolin-2-ylamino]-methyl}-benzenesulfonamide], the EC50 (HCV replicon) is reported as 1 to 10 µM and the CC50 at 3 days [1] is reported as under 10 µM.
Molecule CCOc1nc(NCc2ccc(S(N)(=O)=O)cc2)nc2ccc(-c3ccc(F)c(NS(=O)(=O)C4CC4)c3)cc12 [Example 251, 4-{[6-(3-Cyclopropanesulfonylamino-4-fluoro-phenyl)-4-ethoxy-quinazolin-2-ylamino]-methyl}-benzenesulfonamide] has an EC50 (HCV replicon) of under 0.3 µM and a CC50 at 3 days [1] of under 10 µM.
